Experimental data from US20090285834A1, “NOVEL MEMORY CTL INDUCTION POTENTIATOR” (DAINIPPON SUMITOMO PHARMA CO., LTD., priority 2005, published 2009).

Experiments:
lymphocytes = details: in vivo; cited from earlier work
cytokine production = details: in vivo; cited from earlier work
EG7 (OVA-expressing EL4) = assay type: in vivo, mouse (C57BL/6NCrj); details: with peptide vaccine; EG7 transplanted 21 days after peptide administration; followed to day 28; compared with PBS; FIG. 5
Procedure: Twenty-one days after peptide administration, 5×10^6 EG7 (OVA-expressing EL4: ATCC) suspended in 100 μL PBS was intradermally transplanted at the right flank using a 27 G injection needle after shaving. Tumor diameters (minimum diameter, maximum diameter) were measured using electronic calipers twice a week from 1 week to 28 days after EG7 transplantation, and tumor volumes were calculated.

Structure (SMILES) | time at which the reduction in lymphocytes reaches a peak (lymphocytes) [days] | time from which cytokine production is exhibited after administration (cytokine production) [h] | tumor growth suppression (tumor volume) (EG7 (OVA-expressing EL4))
O=P1(N(CCCl)CCCl)NCCCO1 (stereo not drawn) [cyclophosphamide] | 3 to 4 | – | –
CCOCc1nc2c(N)nc3ccccc3c2n1CC(C)(C)O [R848] | – | ≥ 1 | a slight suppression against proliferation was observed
